# Assay results: patent US6864093B1, “Method of identifying and treating invasive carcinomas” (University of Central Florida, priority 2000, dated 2005)
# Columns and labels:
# Assay type in all cases: cell-based, human
# [1] = test system: prostasin gene promoter (MDA-MB-435s cells); test: demethylation of prostasin gene promoter, genomic Southern blot; conditions: 500 nM, 8 days
# Excerpt: (§1) High molecular weight genomic DNA was isolated from various cell lines as described in Chai, K X, Ward, D C, Chao, J, et al Molecular Clonings Sequence Analysis and Chromosomal Localization of the Human Protease Inhibitor 4 (kallistatin) gene (P14) Genomics 1994; 23:370-8. Genomic DNA frm each cell line was digested with the following restriction enzyme combinations:Xho I/BamH I (X/B), Xho I/BamH I/Hha (X/B/Hh), Xho I/BamH I/Aci I (X/B/A), Xho I/Bam H I.Bsa I (X/B/Bs),Xho I/Bam H I/Msp I(X/B/M) or Xho I/Bam H I/Hpa II(X/B/H) using 10 μg of DNA per digestion combination. The X/B cutting sites flank the CpG sies be to be investigated for differential methylation by the methylation-sensitive restriction endonucleases. The digests were resolved in a 0.8% agarose gel and analyzed by Southern blot hybridization as described in Chai, K X, Ward, D C, Chao, J et al. A nick translated prostasin promoter probe (bases 703-1,649) of the prostasin gene sequence, Genbank accession number U33446) was used for the hybridization. The base numbering of the prostasin gene sequence was described in Yu et al. […]
# [2] = test system: prostasin gene promoter (DU-145 cells); test: as above; conditions: DU-145, 8 days
# Excerpt: as §1
# [3] = test system: prostasin gene promoter (PC-3 cells); test: as above; conditions: PC-3, 8 days
# Excerpt: as §1
# [4] = test system: prostasin mRNA (MDA-MB-231 cells); test: reactivation of prostasin expression, RT-PCR/Southern blot; conditions: MDA-MB-231, 500 nM 5-aza-2′-dC 24 hr followed by 95% ethanol (solvent for TSA)
# Procedure: (§2) Cells grown to 80% confluence (in […] tissue culture dish) were lysed directly with 1 ml of the Trizol Reagent (life Technologies) and RNA was isolated according to the manufacturer's protocol. The human prostasin-specific RT-PCR/Southern blot analysis was performed as described in Yu, J X, and Chao,J Molecular Cloning, tissue-specific expression and cellular localization of human prostasin mRNA. J Biol Chem 1995; 270:12483-4. One microgram of total RNA was used in the RT-PCR with 2 human prostasin gene-specific oligonucleotide primers, and a Southern blot of the resolved RT-PCR samples was probed with a third prostasin gene-specific oligonucleotide, detecting an amplified 232 bp fragment. A co-amplification of the β-actin mRNA for control of RNA quality and quantity was performed as described in Chen Hodge and Guarda, et al.
# (§3) For demethylation of prostasin gene promoter, MDA-MB-231 and MDA-MB-435s cells were seeded in 100 mm dishes at an initial density of 50% confluence and cultured in the presence of 500 nM 5-aza-2′-deoxycytidine (5-aza-2′dC; Sigma-Aldrich) for 8 days with renewal of medium and 5-aza-2′-dC performed at 2 day intervals. Genomic DNA was then isolated for Southern blot analysis as described. For reactivation of prostasin expression, MDA-MB-231 and MDA-MB-435s cells were seeded in 60 mm dishes at 80% confluence and cultured in the presence of 500 nM 5-aza-2′-dC for 24 hr, and were then treated for an additional 24 hr with either 1 μM trichostatin A (TSA; Sigma Aldrich) or an equal volume of 95% ethanol used to dissolve TSA. For measuring time-dependence of prostatin gene reactivation, cells were treated as described above but were harvested at 6 or 12 hr after the addition of TSA. RNA was isolated for prostasin-specifric RT-PCR/Southern blot analysis as described. The MCF-7 and the MDA-MB-453 cell ines were subjected tot the same 5-aza-2′-dC/TSA treatment and prostasin RT-PCR Southern blot analysis procedures.
# [5] = test system: prostasin mRNA (MDA-MB-435s cells); test: as above
# Procedure: as §2, §3
# [6] = test system: prostasin mRNA (DU-145 cells); test: as above; conditions: DU-145, after 8 days 5-aza-2′-dC
# Procedure: as §2
# (§4) Du-145 and […] an additional 24 hours with either 1 μM trichostatin A (TSA, Sigma-Aldrich Co.) or an equal volume of 95% ethanol used to dissolve TSA. TNA was isolated for prostasin-specific RT-PCR/Southern blot analysis as described in example 1.
# [7] = test system: prostasin mRNA (PC-3 cells); test: as above; conditions: PC-3, after 8 days 5-aza-2′-dC
# Procedure: as §2, §4
smiles,measurement,setting,value
"Nc1ncn([C@H]2C[C@H](O)[C@@H](CO)O2)c(=O)n1 [5-aza-2′-dC, 5-aza-2′-deoxycytidine]",demethylation of prostasin promoter-exon 1 region,[1],significant level of demethylation
same,demethylation of prostasin promoter,[2],significant level of demethylation
same,demethylation of prostasin promoter,[3],significant level of demethylation
same,prostasin mRNA re-expression,[4],did not result in prostasin mRNA re-expression
same,prostasin mRNA re-expression,[5]; 500 nM 5-aza-2′-dC 24 hr followed by 95% ethanol (solvent for TSA),did not result in prostasin mRNA re-expression
same,prostasin mRNA expression,[5]; after 8-day 5-aza-2′-dC treatment,failed to detect prostasin mRNA expression
same,prostasin mRNA expression,[6],no prostasin mRNA expression was detected
same,prostasin mRNA expression,[7],no prostasin mRNA expression was detected
